Test results published in patent publication US7459480B2, “Benzodioxepine derivatives” (Hoffmann-La Roche Inc., priority 2003, dated 2008).

The molecules below were run against T1, human ACCβ (Homo sapiens, UniProt O00763) (assay: Radiometric ACCβ enzyme inhibition assay ([14C]NaHCO3 incorporation into malonyl-CoA)). Conditions: human muscle-type ACCβ expressed in HEK293 cells; saturating substrate concentrations; 37° C., 45 min.
T1 construct: The cloning of the full length human muscle-type ACCβ cDNA and expression in HEK293 cells; made in house; host or cells: HEK293 cells (ATCC CRL-1573), transfected with plasmid pRF33D
Assay type: biochemical
Description: Production and Characterization of Human ACCβ Enzyme, Its Use in ACC Activity Assays and for Inhibition Studies
The cloning of the full length human muscle-type ACCβ cDNA and expression in HEK293 cells (ATCC, # CRL-1573) was performed as follows. The ACCβ cDNA was amplified by the polymerase chain reaction (PCR) and was cloned using standard recombinant DNA techniques. The PCR reaction was performed with the Expand Long Template PCR System (Roche Molecular Biochemicals, # 1 681 8340) and 0.5 ng of cDNA from human skeletal muscle as template. The primers used for PCR amplification were designed on the basis of the published sequence of the human ACCβ cDNA isolated from a human liver cDNA library (Abul-Elheiga et al. J. Biol. Chem. 272, 10669-10677, 1997). The sequence of the forward primer ACCB1 was 5′-[…]-3′; it includes a NheI restriction cleavage site for subcloning and a Kozak translation initiation consensus sequence preceding the ATG start codon. The sequence of the reverse primer ACCB8 was 5′-[…]-3′; it includes a stop codon and a XhoI restriction cleavage site for subcloning. The amplified DNA fragment of approximately 7.4 kb was cloned into a mammalian expression vector. The resulting plasmid isolates, pRF33A, B, C, D, and E were individually transfected in human embryonic kidney 293 cells (HEK293) using a standard lipid transfection method. Cell extracts of transfected cells were prepared in a lysis buffer containing 0.4 mg/ml digitonin and enzyme activity was determined using a radiometric ACC activity assay as described below. Plasmid pRF33D gave the highest activity and was chosen for large scale transfections of HEK293 cells and enzyme purification.
Since ACC enzyme activities in crude cell lysates were very low, enrichment of ACCβ enzyme expressed in HEK293 cells was achieved by a single anion exchange chromatography step. Cell lysates were run over a 5 ml Econo Pac High Q column (Bio-Rad, # 732-0027). Bound proteins were eluted by a gradient of NaCl from 0 to 1 M in 50 mM Tris-HCl, pH 7.5, 1 mM DTT, 5% glycerol. Fractions containing high ACCβ enzyme activity were pooled and stored at −20° C.
Standard ACCβ enzyme assays, in a total volume of 100 μl, contained 50 mM HEPES-KOH, pH 7.5, 10 mM K-citrate, 10 mM MgSO4, 1 mM ATP, 0.1 mM DTT, 2% DMSO, 0.1 mg/ml fatty acid-free BSA, 0.2 mM acetyl-CoA, 2 mM KHCO3, 0.2 mM [^14C]NaHCO3 (50-60 mCi/mmol) and cell lysate or purified ACCβ enzyme. Reactions were incubated at 37° C. for 45 min. and stopped by the addition of 50 μl of 2 N HCl. Terminated reactions were incubated at 50° C. over night to evaporate non-incorporated [^14C]NaHCO3. [^14C]-labeled malonyl-CoA reaction product was quantitated by liquid scintillation counting after the addition of 20 μl of Microscint 20 (Canberra Packard, # 6013621) on a TopCount NXT microplate scintillation counter (Canberra Packard).
Inhibition of ACCβ activity was determined at saturating substrate concentrations with two-fold serial dilutions of test compounds spanning a concentration range of at least two log units. IC50 values were calculated with the GraFit software (Erithacus Software Ltd.).

T1 sequence (O00763 whole entry): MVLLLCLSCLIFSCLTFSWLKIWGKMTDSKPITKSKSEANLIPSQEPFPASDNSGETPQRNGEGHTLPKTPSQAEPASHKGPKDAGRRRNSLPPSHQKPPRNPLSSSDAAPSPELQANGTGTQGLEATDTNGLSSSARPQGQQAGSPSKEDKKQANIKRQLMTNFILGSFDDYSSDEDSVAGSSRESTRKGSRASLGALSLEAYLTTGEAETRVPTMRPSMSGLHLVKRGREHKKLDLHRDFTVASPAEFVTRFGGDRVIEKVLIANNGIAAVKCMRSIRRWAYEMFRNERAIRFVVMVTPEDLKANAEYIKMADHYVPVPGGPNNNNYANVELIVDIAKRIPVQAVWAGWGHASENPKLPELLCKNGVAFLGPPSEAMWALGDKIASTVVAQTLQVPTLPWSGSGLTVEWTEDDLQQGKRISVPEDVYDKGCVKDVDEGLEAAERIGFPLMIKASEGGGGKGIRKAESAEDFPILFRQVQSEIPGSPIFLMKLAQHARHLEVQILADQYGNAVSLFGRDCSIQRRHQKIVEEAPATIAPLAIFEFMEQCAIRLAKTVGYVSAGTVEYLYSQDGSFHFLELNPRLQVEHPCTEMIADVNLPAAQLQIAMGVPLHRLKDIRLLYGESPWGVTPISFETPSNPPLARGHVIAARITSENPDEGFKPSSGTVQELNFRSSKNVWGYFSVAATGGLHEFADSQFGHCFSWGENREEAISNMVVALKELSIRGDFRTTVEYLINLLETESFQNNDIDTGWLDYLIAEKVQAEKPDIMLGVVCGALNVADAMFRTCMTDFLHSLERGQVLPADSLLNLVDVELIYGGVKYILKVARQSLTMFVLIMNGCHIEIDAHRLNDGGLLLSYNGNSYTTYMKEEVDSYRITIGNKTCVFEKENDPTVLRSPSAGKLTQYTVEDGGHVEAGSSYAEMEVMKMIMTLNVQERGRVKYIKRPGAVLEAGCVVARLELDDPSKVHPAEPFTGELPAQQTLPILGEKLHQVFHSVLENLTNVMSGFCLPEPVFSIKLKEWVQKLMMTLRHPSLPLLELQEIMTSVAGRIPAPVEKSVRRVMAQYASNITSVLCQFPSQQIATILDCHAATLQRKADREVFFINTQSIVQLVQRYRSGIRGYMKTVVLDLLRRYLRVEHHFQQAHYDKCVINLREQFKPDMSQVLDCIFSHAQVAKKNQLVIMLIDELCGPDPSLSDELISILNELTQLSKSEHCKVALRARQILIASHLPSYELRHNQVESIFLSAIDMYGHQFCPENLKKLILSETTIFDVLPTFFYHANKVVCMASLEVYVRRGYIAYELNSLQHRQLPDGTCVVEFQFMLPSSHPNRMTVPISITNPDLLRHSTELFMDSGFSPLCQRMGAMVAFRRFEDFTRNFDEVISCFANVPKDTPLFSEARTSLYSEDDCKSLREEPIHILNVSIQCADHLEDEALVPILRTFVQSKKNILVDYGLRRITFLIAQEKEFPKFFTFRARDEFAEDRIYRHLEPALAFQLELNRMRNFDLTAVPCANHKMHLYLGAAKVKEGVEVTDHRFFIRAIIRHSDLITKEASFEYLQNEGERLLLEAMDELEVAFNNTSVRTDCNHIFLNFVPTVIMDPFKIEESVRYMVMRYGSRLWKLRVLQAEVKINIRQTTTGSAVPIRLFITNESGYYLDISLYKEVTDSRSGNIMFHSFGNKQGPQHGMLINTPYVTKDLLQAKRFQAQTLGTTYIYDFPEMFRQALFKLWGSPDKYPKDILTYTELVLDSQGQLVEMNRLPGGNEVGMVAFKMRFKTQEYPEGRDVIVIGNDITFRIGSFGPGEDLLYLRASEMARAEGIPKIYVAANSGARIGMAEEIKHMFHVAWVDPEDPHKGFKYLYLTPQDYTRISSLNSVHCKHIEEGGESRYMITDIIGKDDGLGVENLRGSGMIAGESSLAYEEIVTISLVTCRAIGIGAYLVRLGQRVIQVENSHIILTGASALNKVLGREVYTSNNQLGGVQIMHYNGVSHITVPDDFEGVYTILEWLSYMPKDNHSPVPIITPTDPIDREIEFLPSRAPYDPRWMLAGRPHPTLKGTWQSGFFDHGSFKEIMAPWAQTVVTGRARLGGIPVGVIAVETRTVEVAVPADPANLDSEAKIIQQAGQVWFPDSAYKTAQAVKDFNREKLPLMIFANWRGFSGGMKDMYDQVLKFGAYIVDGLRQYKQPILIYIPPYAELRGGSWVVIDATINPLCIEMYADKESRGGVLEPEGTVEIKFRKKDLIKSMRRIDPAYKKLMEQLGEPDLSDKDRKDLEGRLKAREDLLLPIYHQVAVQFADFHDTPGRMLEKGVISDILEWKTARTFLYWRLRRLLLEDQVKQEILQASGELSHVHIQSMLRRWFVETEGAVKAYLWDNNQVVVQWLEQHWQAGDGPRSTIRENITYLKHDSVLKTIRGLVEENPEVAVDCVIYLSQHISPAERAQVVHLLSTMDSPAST

Row | SMILES | IC50
1 | CCOC(=O)c1cccc(C#Cc2ccc3c(c2)OCC(C)(C)CO3)c1 [Example 15, 3-(3,3-Dimethyl-3,4-dihydro-2H-benzo[b][1,4]dioxepin-7-ylethynyl)-benzoic acid ethyl ester] | 3.11 µM
2 | COc1cccc(C#Cc2ccc3c(c2)OCC(C)(C)CO3)c1 [Example 5, 7-(3-Methoxy-phenylethynyl)-3,3-dimethyl-3,4-dihydro-2H-benzo[b][1,4]dioxepine] | 42.2 µM
3 | CC1(C)COc2ccc(C#Cc3ccc4c(c3)CCO4)cc2OC1 [Example 9, 7-(2,3-Dihydro-benzofuran-5-ylethynyl)-3,3-dimethyl-3,4-dihydro-2H-benzo[b][1,4]dioxepine] | 15.1 µM
4 | CCOc1ccc(C#Cc2ccc3c(c2)OCC(C)(C)CO3)cc1 [Example 7, 7-(4-Ethoxy-phenylethynyl)-3,3-dimethyl-3,4-dihydro-2H-benzo[b][1,4]dioxepine] | 1.44 µM
5 | Cn1nnc(-c2ccc(C#Cc3ccc4c(c3)OCC(C)(C)CO4)cc2)n1 [Example 14, 5-[4-(3,3-Dimethyl-3,4-dihydro-2H-benzo[b][1,4]dioxepin-7-ylethynyl)-phenyl]-2-methyl-2H-tetrazole] | 11.2 µM
6 | CCCOc1ccc(C#Cc2ccc3c(c2)OCC(C)(C)CO3)cc1 [Example 21, 3,3-Dimethyl-7-(4-propoxy-phenylethynyl)-3,4-dihydro-2H-benzo[b][1,4]dioxepine] | 0.01 µM
7 | CCOC(=O)c1ccc(C#Cc2ccc3c(c2)OCC(C)(C)CO3)cn1 [Example 13, 5-(3,3-Dimethyl-3,4-dihydro-2H-benzo[b][1,4]dioxepin-7-ylethynyl)-pyridine-2-carboxylic acid ethyl ester] | 5.41 µM
8 | CCOC(=O)c1ccc(OCc2ccc3c(c2)OCC(C)(C)CO3)cc1 [Example 23, 4-(3,3-Dimethyl-3,4-dihydro-2H-benzo[b][1,4]dioxepin-7-ylmethoxy)-benzoic acid ethyl ester] | 0.25 µM
